Assay results: patent publication US11517568B2, “Compounds and methods for treating nematode infections” (The Governing Council of The University of Toronto, priority 2018, dated 2022)

tested on: L3 animals; assay: Abnormal locomotory behaviour of L3 animals on solid agar (extended SAR); assay type: in vivo, Caenorhabditis elegans; conditions: 3.75 uM, 1 h exposure, L3, mean of 4 replicates
Procedure: 20 animals were scored after either 1, 6 or 24 hours of exposure to drug (as indicated) per replicate. […] Data are reported as the mean % of animals with abnormal phenotype over 4 independent replicates.

| SMILES | % any phene 1 h (conc.) 3.75 |
| --- | --- |
| N#Cc1ccc(N2CCN(CC3CCCC3)CC2)cc1 [Ip] | 0.8% |

same assay, conditions: 3.75 uM, 6 h exposure, L3, mean of 4 replicates

| SMILES | % any phene 6 h (conc.) 3.75 |
| --- | --- |
| N#Cc1ccc(N2CCN(CC3CCCC3)CC2)cc1 [Ip] | 0.0% |

same assay, conditions: 3.75 uM, 24 h exposure, L3, mean of 4 replicates

| SMILES | % any phene 24 h (conc.) 3.75 |
| --- | --- |
| N#Cc1ccc(N2CCN(CC3CCCC3)CC2)cc1 [Ip] | 0.0% |

same assay, conditions: 15 uM, 1 h exposure, L3, mean of 4 replicates

| SMILES | % any phene 1 h (conc.) 15 |
| --- | --- |
| N#Cc1ccc(N2CCN(CC3CCCC3)CC2)cc1 [Ip] | 29.2% |

same assay, conditions: 15 uM, 6 h exposure, L3, mean of 4 replicates

| SMILES | % any phene 6 h (conc.) 15 |
| --- | --- |
| N#Cc1ccc(N2CCN(CC3CCCC3)CC2)cc1 [Ip] | 10.0% |

same assay, conditions: 15 uM, 24 h exposure, L3, mean of 4 replicates

| SMILES | % any phene 24 h (conc.) 15 |
| --- | --- |
| N#Cc1ccc(N2CCN(CC3CCCC3)CC2)cc1 [Ip] | 0.0% |

same assay, conditions: 60 uM, 1 h exposure, L3, mean of 4 replicates

| SMILES | % any phene 1 h (conc.) 60 |
| --- | --- |
| N#Cc1ccc(N2CCN(CC3CCCC3)CC2)cc1 [Ip] | 91.3% |

same assay, conditions: 60 uM, 6 h exposure, L3, mean of 4 replicates

| SMILES | % any phene 6 h (conc.) 60 |
| --- | --- |
| N#Cc1ccc(N2CCN(CC3CCCC3)CC2)cc1 [Ip] | 42.5% |

same assay, conditions: 60 uM, 24 h exposure, L3, mean of 4 replicates

| SMILES | % any phene 24 h (conc.) 60 |
| --- | --- |
| N#Cc1ccc(N2CCN(CC3CCCC3)CC2)cc1 [Ip] | 62.5% |

same assay, conditions: Caenorhabditis elegans, 1 h, read-out: % any phene 1 h (conc.) 3.75

| SMILES | pest or weed control at 3.75 µM |
| --- | --- |
| Clc1ccc(N2CCN(CC3CCCCC3)CC2)cc1 [Ih] | 0% |
| Fc1ccc(N2CCN(CC3CCCCC3)CC2)cc1 [Ig] | 21.7% |

same assay, conditions: Caenorhabditis elegans, 1 h, read-out: % any phene 1 h (conc.) 15

| SMILES | pest or weed control at 15 µM |
| --- | --- |
| Clc1ccc(N2CCN(CC3CCCCC3)CC2)cc1 [Ih] | 27.5% |
| Fc1ccc(N2CCN(CC3CCCCC3)CC2)cc1 [Ig] | 44.2% |

same assay, conditions: Caenorhabditis elegans, 1 h, read-out: % any phene 1 h (conc.) 60

| SMILES | pest or weed control at 60 µM |
| --- | --- |
| Clc1ccc(N2CCN(CC3CCCCC3)CC2)cc1 [Ih] | 55.7% |
| Fc1ccc(N2CCN(CC3CCCCC3)CC2)cc1 [Ig] | 95% |

same assay, conditions: Caenorhabditis elegans, 6 h, read-out: % any phene 6 h (conc.) 3.75

| SMILES | pest or weed control at 3.75 µM |
| --- | --- |
| Clc1ccc(N2CCN(CC3CCCCC3)CC2)cc1 [Ih] | 0% |
| Fc1ccc(N2CCN(CC3CCCCC3)CC2)cc1 [Ig] | 0.8% |

same assay, conditions: Caenorhabditis elegans, 6 h, read-out: % any phene 6 h (conc.) 15

| SMILES | pest or weed control at 15 µM |
| --- | --- |
| Clc1ccc(N2CCN(CC3CCCCC3)CC2)cc1 [Ih] | 0% |
| Fc1ccc(N2CCN(CC3CCCCC3)CC2)cc1 [Ig] | 9.2% |

same assay, conditions: Caenorhabditis elegans, 6 h, read-out: % any phene 6 h (conc.) 60

| SMILES | pest or weed control at 60 µM |
| --- | --- |
| Clc1ccc(N2CCN(CC3CCCCC3)CC2)cc1 [Ih] | 5.8% |
| Fc1ccc(N2CCN(CC3CCCCC3)CC2)cc1 [Ig] | 79.2% |

same assay, conditions: Caenorhabditis elegans, 24 h, read-out: % any phene 24 h (conc.) 3.75

| SMILES | pest or weed control at 3.75 µM |
| --- | --- |
| Clc1ccc(N2CCN(CC3CCCCC3)CC2)cc1 [Ih] | 0% |
| Fc1ccc(N2CCN(CC3CCCCC3)CC2)cc1 [Ig] | 0% |

same assay, conditions: Caenorhabditis elegans, 24 h, read-out: % any phene 24 h (conc.) 15

| SMILES | pest or weed control at 15 µM |
| --- | --- |
| Clc1ccc(N2CCN(CC3CCCCC3)CC2)cc1 [Ih] | 0% |
| Fc1ccc(N2CCN(CC3CCCCC3)CC2)cc1 [Ig] | 4.2% |

same assay, conditions: Caenorhabditis elegans, 24 h, read-out: % any phene 24 h (conc.) 60

| SMILES | pest or weed control at 60 µM |
| --- | --- |
| Clc1ccc(N2CCN(CC3CCCCC3)CC2)cc1 [Ih] | 10.8% |
| Fc1ccc(N2CCN(CC3CCCCC3)CC2)cc1 [Ig] | 66.7% |

same assay, conditions: Caenorhabditis elegans; 3.75 uM, 1 h exposure, L3, mean of 4 replicates; read-out: % any phene 1 h (conc.) 3.75

| SMILES | pest or weed control at 3.75 µM |
| --- | --- |
| O=[N+]([O-])c1ccc(N2CCN(C3CCCCCCC3)CC2)cc1 [Is] | 3.3% |
| CCC1CCC(N2CCN(c3ccc([N+](=O)[O-])cc3)CC2)CC1 (stereo not shown) [Ic] | 29.2% |
| c1ccc(N2CCN(C3CCCCCCC3)CC2)cc1 [Icc] | 46.7% |
| Fc1ccc(N2CCN(C3CCCCCC3)CC2)cc1 [Iaa] | 45% |
| Clc1ccc(N2CCN(CC3CC4C=CC3C4)CC2)cc1 (stereo not shown) [Ix] | 89.2% |

same assay, conditions: Caenorhabditis elegans; 3.75 uM, 6 h exposure, L3, mean of 4 replicates; read-out: % any phene 6 h (conc.) 3.75

| SMILES | pest or weed control at 3.75 µM |
| --- | --- |
| O=[N+]([O-])c1ccc(N2CCN(C3CCCCCCC3)CC2)cc1 [Is] | 0% |
| CCC1CCC(N2CCN(c3ccc([N+](=O)[O-])cc3)CC2)CC1 (stereo not shown) [Ic] | 8.3% |
| c1ccc(N2CCN(C3CCCCCCC3)CC2)cc1 [Icc] | 0% |
| Fc1ccc(N2CCN(C3CCCCCC3)CC2)cc1 [Iaa] | 6.7% |
| Clc1ccc(N2CCN(CC3CC4C=CC3C4)CC2)cc1 (stereo not shown) [Ix] | 100% |

same assay, conditions: Caenorhabditis elegans; 3.75 uM, 24 h exposure, L3, mean of 4 replicates; read-out: % any phene 24 h (conc.) 3.75

| SMILES | pest or weed control at 3.75 µM |
| --- | --- |
| O=[N+]([O-])c1ccc(N2CCN(C3CCCCCCC3)CC2)cc1 [Is] | 0% |
| CCC1CCC(N2CCN(c3ccc([N+](=O)[O-])cc3)CC2)CC1 (stereo not shown) [Ic] | 0% |
| c1ccc(N2CCN(C3CCCCCCC3)CC2)cc1 [Icc] | 0% |
| Fc1ccc(N2CCN(C3CCCCCC3)CC2)cc1 [Iaa] | 0% |
| Clc1ccc(N2CCN(CC3CC4C=CC3C4)CC2)cc1 (stereo not shown) [Ix] | 66.7% |

same assay, conditions: Caenorhabditis elegans; 15 uM, 1 h exposure, L3, mean of 4 replicates; read-out: % any phene 1 h (conc.) 15

| SMILES | pest or weed control at 15 µM |
| --- | --- |
| CCC1CCC(N2CCN(c3ccc([N+](=O)[O-])cc3)CC2)CC1 (stereo not shown) [Ic] | 95.9% |
| c1ccc(N2CCN(C3CCCCCCC3)CC2)cc1 [Icc] | 93.3% |
| Fc1ccc(N2CCN(C3CCCCCC3)CC2)cc1 [Iaa] | 89.2% |
| Clc1ccc(N2CCN(CC3CC4C=CC3C4)CC2)cc1 (stereo not shown) [Ix] | 100% |

same assay, conditions: Caenorhabditis elegans; 15 uM, 6 h exposure, L3, mean of 4 replicates; read-out: % any phene 6 h (conc.) 15

| SMILES | pest or weed control at 15 µM |
| --- | --- |
| O=[N+]([O-])c1ccc(N2CCN(C3CCCCCCC3)CC2)cc1 [Is] | 15% |
| CCC1CCC(N2CCN(c3ccc([N+](=O)[O-])cc3)CC2)CC1 (stereo not shown) [Ic] | 80.8% |
| c1ccc(N2CCN(C3CCCCCCC3)CC2)cc1 [Icc] | 0.8% |
| Fc1ccc(N2CCN(C3CCCCCC3)CC2)cc1 [Iaa] | 27.5% |
| Clc1ccc(N2CCN(CC3CC4C=CC3C4)CC2)cc1 (stereo not shown) [Ix] | 100% |

same assay, conditions: Caenorhabditis elegans; 15 uM, 24 h exposure, L3, mean of 4 replicates; read-out: % any phene 24 h (conc.) 15

| SMILES | pest or weed control at 15 µM |
| --- | --- |
| O=[N+]([O-])c1ccc(N2CCN(C3CCCCCCC3)CC2)cc1 [Is] | 0% |
| CCC1CCC(N2CCN(c3ccc([N+](=O)[O-])cc3)CC2)CC1 (stereo not shown) [Ic] | 89.2% |
| c1ccc(N2CCN(C3CCCCCCC3)CC2)cc1 [Icc] | 0% |
| Fc1ccc(N2CCN(C3CCCCCC3)CC2)cc1 [Iaa] | 0% |
| Clc1ccc(N2CCN(CC3CC4C=CC3C4)CC2)cc1 (stereo not shown) [Ix] | 100% |

same assay, conditions: Caenorhabditis elegans; 60 uM, 1 h exposure, L3, mean of 4 replicates; read-out: % any phene 1 h (conc.) 60

| SMILES | pest or weed control at 60 µM |
| --- | --- |
| O=[N+]([O-])c1ccc(N2CCN(C3CCCCCCC3)CC2)cc1 [Is] | 100% |
| CCC1CCC(N2CCN(c3ccc([N+](=O)[O-])cc3)CC2)CC1 (stereo not shown) [Ic] | 100% |
| c1ccc(N2CCN(C3CCCCCCC3)CC2)cc1 [Icc] | 100% |
| Fc1ccc(N2CCN(C3CCCCCC3)CC2)cc1 [Iaa] | 100% |
| Clc1ccc(N2CCN(CC3CC4C=CC3C4)CC2)cc1 (stereo not shown) [Ix] | 100% |

same assay, conditions: Caenorhabditis elegans; 60 uM, 6 h exposure, L3, mean of 4 replicates; read-out: % any phene 6 h (conc.) 60

| SMILES | pest or weed control at 60 µM |
| --- | --- |
| O=[N+]([O-])c1ccc(N2CCN(C3CCCCCCC3)CC2)cc1 [Is] | 62.5% |
| CCC1CCC(N2CCN(c3ccc([N+](=O)[O-])cc3)CC2)CC1 (stereo not shown) [Ic] | 100% |
| c1ccc(N2CCN(C3CCCCCCC3)CC2)cc1 [Icc] | 33.3% |
| Fc1ccc(N2CCN(C3CCCCCC3)CC2)cc1 [Iaa] | 97.5% |
| Clc1ccc(N2CCN(CC3CC4C=CC3C4)CC2)cc1 (stereo not shown) [Ix] | 100% |

same assay, conditions: Caenorhabditis elegans; 60 uM, 24 h exposure, L3, mean of 4 replicates; read-out: % any phene 24 h (conc.) 60

| SMILES | pest or weed control at 60 µM |
| --- | --- |
| O=[N+]([O-])c1ccc(N2CCN(C3CCCCCCC3)CC2)cc1 [Is] | 13.3% |
| CCC1CCC(N2CCN(c3ccc([N+](=O)[O-])cc3)CC2)CC1 (stereo not shown) [Ic] | 100% |
| c1ccc(N2CCN(C3CCCCCCC3)CC2)cc1 [Icc] | 0% |
| Fc1ccc(N2CCN(C3CCCCCC3)CC2)cc1 [Iaa] | 69.2% |
| Clc1ccc(N2CCN(CC3CC4C=CC3C4)CC2)cc1 (stereo not shown) [Ix] | 100% |

tested on: wild type fourth-stage C. elegans larvae (L4s); assay: Locomotory defects (coiled and/or paralysis) in wild type fourth-stage C. elegans larvae on solid substrate; assay type: in vivo, Caenorhabditis elegans; conditions: 60 μM, after 60 min on solid substrate, L4 C. elegans
Procedure: A preliminary first round of SAR analyses using analogs of exemplary compound Ia was performed and the analogs' ability to induce locomotory defects in wild type fourth-stage C. elegans larvae (L4s) was tested.
If phenotype is observed, a dose-response analysis is performed.

| SMILES | Activity (%): percent of animals that show coiled and/or paralysis |
| --- | --- |
| CCC1CCC(N2CCN(c3ccc([N+](=O)[O-])cc3)CC2)CC1 (stereo not shown) [Ic] | 71% +/− 2.1 |
| N#Cc1ccc(N2CCN(CC3CCCC3)CC2)cc1 [Ip] | 41% +/− 7.4 |
